# Source: US20260335451A1, “SOLID ORAL DOSAGE FORMS OF ESTROGEN RECEPTOR DEGRADERS” (Arvinas Operations, Inc., priority 2023, published 2026)
# Key:
# [1] = Biopharmaceutics Classification System class; format: physicochemical
# ER = biological target: T1, ER (Homo sapiens, UniProt P03372); experiment: ER degradation; settings: evidence in words
# T1 construct: PROTAC recruits cereblon (CRBN) E3 ligase
# T1 sequence (P03372 1-595): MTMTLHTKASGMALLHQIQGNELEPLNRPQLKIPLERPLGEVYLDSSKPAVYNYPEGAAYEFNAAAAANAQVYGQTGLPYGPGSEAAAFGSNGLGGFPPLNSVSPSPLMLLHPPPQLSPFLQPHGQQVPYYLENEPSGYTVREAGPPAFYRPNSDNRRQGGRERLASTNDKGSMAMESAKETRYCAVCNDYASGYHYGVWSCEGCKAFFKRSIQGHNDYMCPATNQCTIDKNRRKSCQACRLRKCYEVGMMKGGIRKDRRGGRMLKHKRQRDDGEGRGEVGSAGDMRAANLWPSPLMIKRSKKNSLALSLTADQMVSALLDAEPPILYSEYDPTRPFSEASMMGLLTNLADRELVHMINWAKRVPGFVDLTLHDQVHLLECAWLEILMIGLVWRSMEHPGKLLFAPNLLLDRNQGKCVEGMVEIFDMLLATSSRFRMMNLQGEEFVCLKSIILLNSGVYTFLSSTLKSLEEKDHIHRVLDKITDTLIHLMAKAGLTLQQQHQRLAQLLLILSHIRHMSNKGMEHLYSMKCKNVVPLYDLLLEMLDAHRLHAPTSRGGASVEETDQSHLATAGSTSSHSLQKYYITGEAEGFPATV
# [2] = Preclinical exposure of epimer Compound B vs Compound A; format: in vivo; settings: preclinical data; epimer formed by interconversion of Compound A
"permeability (in words, BCS) [1]","solubility (in words, BCS) [1]",ER degradation (ER),exposure of Compound B compared to Compound A [2],SMILES
low permeability,low solubility,,,"O=C1CC[C@H](N2Cc3cc(N4CCN(CC5CCN(c6ccc([C@@H]7c8ccc(O)cc8CC[C@@H]7c7ccccc7)cc6)CC5)CC4)ccc3C2=O)C(=O)N1 [Compound A, (S)-3-(5-(4-((1-(4-((1R,2S)-6-hydroxy-2-phenyl-1,2,3,4-tetrahydronaphthalen-1-yl)phenyl)piperidin-4-yl)methyl)piperazin-1-yl)-1-oxoisoindolin-2-yl)piperidine-2,6-dione]"
,,does not degrade the ER,< 26%,O=C1CC[C@@H](N2Cc3cc(N4CCN(CC5CCN(c6ccc([C@@H]7c8ccc(O)cc8CC[C@@H]7c7ccccc7)cc6)CC5)CC4)ccc3C2=O)C(=O)N1 [Compound B]
